Experimental data as given in the NIST ThermoML archive (doi:10.1016/j.jct.2006.07.021).

Assay: xn = mol fraction of the nth substance listed
Conditions: 101 kPa, Liquid, Pycnometric method

NC=O [formamide] + OCCO
mass density [kg/m3]
Conditions	293.15 K	298.15 K	303.15 K	308.15 K	313.15 K	318.15 K
x1 = 0.0612	1114.13	1110.54	1106.94	1103.38	1099.81	1096.21
x1 = 0.1204	1114.54	1110.93	1107.31	1103.66	1100.06	1096.44
x1 = 0.1859	1115.04	1111.39	1107.74	1104.07	1100.42	1096.73
x1 = 0.2524	1115.55	1111.84	1108.13	1104.47	1100.77	1097.09
x1 = 0.3302	1116.11	1112.36	1108.66	1104.92	1101.18	1097.46
x1 = 0.3926	1116.61	1112.86	1109.1	1105.36	1101.62	1097.88
x1 = 0.4517	1117.2	1113.44	1109.64	1105.85	1102.08	1098.29
x1 = 0.5102	1117.85	1114.01	1110.17	1106.38	1102.55	1098.74
x1 = 0.5643	1118.48	1114.66	1110.81	1106.95	1103.13	1099.29
x1 = 0.6101	1119.18	1115.31	1111.46	1107.6	1103.72	1099.89
x1 = 0.6596	1120.09	1116.22	1112.36	1108.46	1104.59	1100.7
x1 = 0.7454	1122.11	1118.19	1114.23	1110.28	1106.35	1102.42
x1 = 0.8195	1124.35	1120.37	1116.38	1112.38	1108.42	1104.46
x1 = 0.8883	1127.02	1122.99	1119	1115.01	1110.98	1106.96
x1 = 0.9491	1130.03	1125.99	1121.95	1117.89	1113.86	1109.79
x1 = 1	1133	1129	1125	1121	1117	1113

CCCO [propan-1-ol] + NC=O
x2 = 0
Conditions	mass density [kg/m3]
293.15 K	803.71
298.15 K	799.74
303.15 K	795.77
308.15 K	791.8
313.15 K	787.83
318.15 K	783.86
